Reference: patent US20250250227A1, “AMINO LIPID COMPOUND, PREPARATION METHOD THEREFOR, COMPOSITION THEREOF AND USE THEREOF” (SHENZHEN SHENXIN BIOTECHNOLOGY CO., LTD., priority 2022, published 2025)

Tests used:
Female BALB/c mice [1] = assay: Humoral immunity test for total binding IgG antibody (ELISA, SARS-COV-2 antigen protein) in serum of immunized mice; type: in vivo; details: IN002.5.1 mRNA LNP, 50 μL IM, serum on 14th day after immunization; FIG. 5-6
Female BALB/c mice [2] = assay: In vivo safety of hEPO mRNA lipid nanoparticle: serum alanine aminotransferase (ALT) enzyme activity; details: hEPO mRNA LNP, 300 μL IV, serum 12 h after injection; FIG. 1
Procedure: A human erythropoietin mRNA (hEPO mRNA)-encapsulating lipid nanoparticle formulation was prepared according to the method as described in Experimental Example 1, with replacing the luciferase mRNA (Fluc mRNA) with human erythropoietin mRNA (hEPO mRNA), with a concentration of hEPO mRNA of 0.2 g/L, a mass ratio of hEPO mRNA to Lipid of 1:10, a particle size of 90-130 nm, and an encapsulation efficiency of above 90% or higher.
Animal preparation: Female BALB/c mice of 6-8 weeks old were selected and raised in an SPF grade breeding room. Animal testing was conducted in strict accordance with the guidelines of national health institutions and animal ethics requirements.
In vivo Delivery: Prior to injection of the test LNP formulations, the LNP formulations were gently and repeatedly inverted to thoroughly mix the formulation samples. A corresponding amount of the formulation samples were aspirated with a 1 ml insulin syringe, and the LNP formulations were injected by tail vein injection (IV), with 5 mice per formulation. Each mouse was injected with 300 μL of the human erythropoietin mRNA (hEPO mRNA)-encapsulating lipid nanoparticle formulation.
Serum acquisition: Blood samples of mice were collected 12 h after injection, placed in tubes without anticoagulants, and naturally coagulated at room temperature for 30-60 min, and then centrifuged at a speed of 3500 rpm for 10 min to obtain the supernatant, which was the serum.
The detection of alanine transaminase was carried out according to instructions of the kit (Nanjing Jiancheng Bioengineering Institute, Catalog. No. C009-2-1), and a standard curve was made using the standard provided in the kit. D-PBS was used in the experiment, which was purchased from Sangon Biotech (Shanghai) Co., Ltd., Catalog No. E607009-0600.
The method of detection of enzyme activity of alanine aminotransferase (ALT) in serum of the mice is as follows:
• (1) Enzymatic reaction: 0, 2, 4, 6, 8 and 10 μL of […] sodium pyruvate standard solution were sequentially added to 5 μL of 0.1 mol/L phosphate buffer, and the volume was supplemented to 25 μL with a matrix solution, and repeatedly aspirating and spitting with a pipette for mixing well; • (2) Addition reaction: 20 μL 2,4-dinitrophenylhydrazine solution was added to all reaction wells in (1), mixed by aspirating and spitting, and then placed in an incubator at 37° C. to react for 20 min; • (3) Developing: 200 μL of 0.4 mol/L NaOH solution was added to all reaction wells in (2) to stop the reaction, mixed by aspirating and spitting, and incubated at room temperature for 15 min. The OD value of each well was measured at 510 nm in a microplate reader; and • (4) Data processing of standard curve: The corresponding absolute OD value for each well was obtained by subtracting the OD value for 0 μL well from the measured OD value for each well, the corresponding ALT Karmen units being 0, 28, 57, 97, 150 and 200 U/L, respectively. The standard curve was obtain by taking the absolute OD value as the abscissa and the corresponding Karmen unit as the ordinate.
• (1) Reagent preparation: an ALT matrix solution was placed in an incubator at 37° C. for preheating; • (2) Enzymatic reaction: 5 μL diluted serum was aspirated and added to a 96-well plate, then 20 μL matrix solution was added to the corresponding sample well and mixed by repeatedly aspirating and spitting to avoid bubbling, and then placed in an incubator at 37° C. for 30 min; • (3) Addition reaction: 20 μL 2,4-dinitrophenylhydrazine was added to all reaction wells in (2), mixed by aspirating and spitting, and then reacted in an incubator at 37° C. for 20 min; • (4) Developing: 200 μL of 0.4 mol/L NaOH solution was added to all reaction wells in (3) to stop the reaction, mixed by aspirating and spitting, and then incubated at room temperature for 15 min. […]

Structure (SMILES) | Humoral immunity effect (IgG titer) compared to ALC0315 (Female BALB/c mice [1]) | ALT enzyme activity (Karmen unit) compared to ALC0315 and SM-102 (Female BALB/c mice [2])
CCCCCCC(CCCCCC)OC(=O)CCCCCCCCC(CCCCCCCCC(=O)OC(CCCCCC)CCCCCC)OC(=O)N(CCCN(C)C)CCC(=O)OCCCC [Compound 264] | better humoral immunity effect | significantly lower ALT enzyme activity
CCCCCCCOC(=O)CCN(CCCN(C)C)C(=O)OC(CCCCCCCCC(=O)OC(CCCCCC)CCCCCC)CCCCCCCCC(=O)OC(CCCCCC)CCCCCC [Compound 267] | – | significantly lower ALT enzyme activity
CCCCCCC(CCCCCC)OC(=O)CCCCCCCCC(CCCCCCCCC(=O)OC(CCCCCC)CCCCCC)OC(=O)N(CCCN(C)C)CC(=O)OCCCC [Compound 270] | better humoral immunity effect | significantly lower ALT enzyme activity
CCCCCCOC(=O)CN(CCCN(C)C)C(=O)OC(CCCCCCCCC(=O)OC(CCCCCC)CCCCCC)CCCCCCCCC(=O)OC(CCCCCC)CCCCCC [Compound 272] | – | significantly lower ALT enzyme activity
CCCCCCCOC(=O)CN(CCCN(C)C)C(=O)OC(CCCCCCCCC(=O)OC(CCCCCC)CCCCCC)CCCCCCCCC(=O)OC(CCCCCC)CCCCCC [Compound 273] | better humoral immunity effect | significantly lower ALT enzyme activity
